Values joined by “and” are separate entries in the source; they are usually repeats but may differ in a detail not shown here. Identical values can stand only once. Inconclusive results and toxic doses are left out.
Test system: L1210 leukemia ip in BDF1 mice, survival T/C
Assay: NCI In Vivo Anticancer Drug Screen. Data for tumor model L1210 Leukemia (intraperitoneal) in B6D2F1 (BDF1) mice
Conditions: higher = longer survival
Outline: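 Ratio derived from survival: compound-dosed mice over vehicle-dosed mice, all bearing a transplantable tumor.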

With `N=[N+]=CC(=O)OCC(N)C(=O)O` (stereo unspecified) the T/C (endpoint: mean survival time, dose: 0.06 mg/kg/injection, schedule: Q#A X Z (ip), vehicle: saline) was 117 % of control, the T/C (endpoint: mean survival time, dose: 0.43 mg/kg/injection, schedule: Q01DX009 (ip), vehicle: saline) was 111 % of control and the T/C (endpoint: mean survival time, dose: 0.5 mg/kg/injection, schedule: Q01DX010 (ip), vehicle: saline) was 119 % of control. For the same compound, the T/C (endpoint: mean survival time, dose: 0.5 mg/kg/injection, schedule: Q01DX Z (ip), vehicle: saline) was 117 % of control and 118 % of control, the T/C (endpoint: mean survival time, dose: 0.85 mg/kg/injection, schedule: Q01DX009 (ip), vehicle: saline) was 105 % of control and 111 % of control and the T/C (endpoint: mean survival time, dose: 1.0 mg/kg/injection, schedule: Q01DX Z (ip), vehicle: saline) was 115 % of control. The T/C (endpoint: mean survival time, dose: 1.3 mg/kg/injection, schedule: Q04DX002 (ip), vehicle: saline) was 98 % of control and 112 % of control, the T/C (endpoint: mean survival time, dose: 1.7 mg/kg/injection, schedule: Q01DX009 (ip), vehicle: saline) was 115 % of control and the T/C (endpoint: mean survival time, dose: 1.8 mg/kg/injection, schedule: Q01DX Z (ip), vehicle: carboxymethylcellulose (CMC)) was 108 % of control and 120 % of control. The T/C (endpoint: mean survival time, dose: 2.0 mg/kg/injection, schedule: Q01DX005 (ip), vehicle: saline) was 114 % of control, the T/C (endpoint: mean survival time, dose: 2.0 mg/kg/injection, schedule: Q01DX Z (oral), vehicle: saline) was 110 % of control and the T/C (endpoint: mean survival time, dose: 2.0 mg/kg/injection, schedule: Q01DX Z (sc), vehicle: saline) was 118 % of control. For the same compound, the T/C (endpoint: mean survival time, dose: 2.5 mg/kg/injection, schedule: Q04DX002 (ip), vehicle: saline) was 106 % of control and 110 % of control, the T/C (endpoint: mean survival time, dose: 3.5 mg/kg/injection, schedule: Q07DX003 (ip), vehicle: saline) was 115 % of control and the T/C (endpoint: mean survival time, dose: 4.0 mg/kg/injection, schedule: Q01DX009 (ip), vehicle: saline) was 121 % of control. For the same compound, the T/C (endpoint: mean survival time, dose: 4.0 mg/kg/injection, schedule: Q01DX Z (im), vehicle: saline) was 118 % of control, the T/C (endpoint: mean survival time, dose: 4.0 mg/kg/injection, schedule: Q01DX Z (sc), vehicle: saline) was 119 % of control and the T/C (endpoint: mean survival time, dose: 4.0 mg/kg/injection, schedule: Q03HX024 (oral), vehicle: saline) was 117 % of control. For the same compound, the T/C (endpoint: mean survival time, dose: 4.0 mg/kg/injection, schedule: Q## X003 (ip), vehicle: saline) was 106 % of control, the T/C (endpoint: mean survival time, dose: 5.0 mg/kg/injection, schedule: Q04DX002 (ip), vehicle: saline) was 117 % of control and 121 % of control and the T/C (endpoint: mean survival time, dose: 7.0 mg/kg/injection, schedule: Q07DX003 (ip), vehicle: saline) was 117 % of control. The T/C (endpoint: mean survival time, dose: 8.0 mg/kg/injection, schedule: Q01DX009 (ip), vehicle: saline) was 121 % of control, the T/C (endpoint: mean survival time, dose: 8.0 mg/kg/injection, schedule: Q01DX009 (oral), vehicle: saline) was 105 % of control and 107 % of control and the T/C (endpoint: mean survival time, dose: 8.0 mg/kg/injection, schedule: Q04DX003 (ip), vehicle: saline) was 113 % of control. The T/C (endpoint: mean survival time, dose: 8.0 mg/kg/injection, schedule: Q## X002 (ip), vehicle: saline) was 102 % of control, the T/C (endpoint: mean survival time, dose: 8.0 mg/kg/injection, schedule: Q## X003 (ip), vehicle: saline) was 107 % of control and 113 % of control and the T/C (endpoint: mean survival time, dose: 8.0 mg/kg/injection, schedule: Q## X003 (oral), vehicle: saline) was 97 % of control and 101 % of control. The T/C (endpoint: mean survival time, dose: 8.0 mg/kg/injection, schedule: Q## X024 (oral), vehicle: saline) was 106 % of control, the T/C (endpoint: mean survival time, dose: 14.0 mg/kg/injection, schedule: Q01DX001 (ip), vehicle: saline) was 120 % of control and 121 % of control and the T/C (endpoint: mean survival time, dose: 14.0 mg/kg/injection, schedule: Q07DX003 (ip), vehicle: saline) was 117 % of control. For the same compound, the T/C (endpoint: mean survival time, dose: 16.0 mg/kg/injection, schedule: Q01DX001 (ip), vehicle: saline) was 108 % of control, the T/C (endpoint: mean survival time, dose: 16.0 mg/kg/injection, schedule: Q01DX001 (sc), vehicle: saline) was 98 % of control and the T/C (endpoint: mean survival time, dose: 16.0 mg/kg/injection, schedule: Q01DX006 (iv), vehicle: saline) was 107 % of control. For the same compound, the T/C (endpoint: mean survival time, dose: 16.0 mg/kg/injection, schedule: Q04DX003 (ip), vehicle: saline) was 112 % of control, the T/C (endpoint: mean survival time, dose: 16.0 mg/kg/injection, schedule: Q04DX003 (oral), vehicle: saline) was 101 % of control and 104 % of control and the T/C (endpoint: mean survival time, dose: 16.0 mg/kg/injection, schedule: Q## X002 (ip), vehicle: saline) was 103 % of control. The T/C (endpoint: mean survival time, dose: 16.0 mg/kg/injection, schedule: Q## X003 (ip), vehicle: saline) was 116 % of control, the T/C (endpoint: mean survival time, dose: 16.0 mg/kg/injection, schedule: Q## X003 (oral), vehicle: saline) was 111 % of control and 113 % of control and the T/C (endpoint: mean survival time, dose: 16.0 mg/kg/injection, schedule: Q## X024 (oral), vehicle: saline) was 97 % of control and 104 % of control. The T/C (endpoint: mean survival time, dose: 18.0 mg/kg/injection, schedule: Q01DX014 (ip), vehicle: saline) was 117 % of control, the T/C (endpoint: mean survival time, dose: 27.0 mg/kg/injection, schedule: Q01DX001 (ip), vehicle: saline) was 104 % of control and the T/C (endpoint: mean survival time, dose: 28.0 mg/kg/injection, schedule: Q01DX001 (ip), vehicle: saline) was 120 % of control. The T/C (endpoint: mean survival time, dose: 28.0 mg/kg/injection, schedule: Q07DX003 (ip), vehicle: saline) was 120 % of control, the T/C (endpoint: mean survival time, dose: 32.0 mg/kg/injection, schedule: Q01DX001 (ip), vehicle: saline) was 111 % of control and the T/C (endpoint: mean survival time, dose: 32.0 mg/kg/injection, schedule: Q01DX001 (sc), vehicle: saline) was 105 % of control. The T/C (endpoint: mean survival time, dose: 32.0 mg/kg/injection, schedule: Q01DX009 (ip), vehicle: saline) was 102 % of control and 119 % of control, the T/C (endpoint: mean survival time, dose: 32.0 mg/kg/injection, schedule: Q01DX009 (sc), vehicle: saline) was 109 % of control and the T/C (endpoint: mean survival time, dose: 32.0 mg/kg/injection, schedule: Q01DX Z (ip), vehicle: saline) was 95 % of control. For the same compound, the T/C (endpoint: mean survival time, dose: 32.0 mg/kg/injection, schedule: Q01DX Z (sc), vehicle: saline) was 118 % of control, the T/C (endpoint: mean survival time, dose: 32.0 mg/kg/injection, schedule: Q04DX003 (ip), vehicle: saline) was 115 % of control and the T/C (endpoint: mean survival time, dose: 32.0 mg/kg/injection, schedule: Q04DX003 (oral), vehicle: saline) was 110 % of control. For the same compound, the T/C (endpoint: mean survival time, dose: 32.0 mg/kg/injection, schedule: Q## X002 (ip), vehicle: saline) was 120 % of control, the T/C (endpoint: mean survival time, dose: 32.0 mg/kg/injection, schedule: Q## X003 (ip), vehicle: saline) was 117 % of control and the T/C (endpoint: mean survival time, dose: 32.0 mg/kg/injection, schedule: Q## X003 (oral), vehicle: saline) was 109 % of control and 120 % of control. The T/C (endpoint: mean survival time, dose: 32.0 mg/kg/injection, schedule: Q## X024 (oral), vehicle: saline) was 121 % of control, the T/C (endpoint: mean survival time, dose: 35.0 mg/kg/injection, schedule: Q02DX010 (ip), vehicle: other) was 95 % of control and the T/C (endpoint: mean survival time, dose: 36.0 mg/kg/injection, schedule: Q02DX010 (ip), vehicle: other) was 110 % of control. For the same compound, the T/C (endpoint: mean survival time, dose: 40.0 mg/kg/injection, schedule: Q01DX001 (ip), vehicle: saline) was 112 % of control, the T/C (endpoint: mean survival time, dose: 40.0 mg/kg/injection, schedule: Q01DX Z (ip), vehicle: saline) was 99 % of control and the T/C (endpoint: mean survival time, dose: 52.0 mg/kg/injection, schedule: Q02DX010 (ip), vehicle: carboxymethylcellulose (CMC)) was 107 % of control. For the same compound, the T/C (endpoint: mean survival time, dose: 54.0 mg/kg/injection, schedule: Q02DX010 (ip), vehicle: other) was 106 % of control, the T/C (endpoint: mean survival time, dose: 60.0 mg/kg/injection, schedule: Q01DX001 (ip), vehicle: saline) was 121 % of control and the T/C (endpoint: mean survival time, dose: 64.0 mg/kg/injection, schedule: Q01DX001 (ip), vehicle: saline) was 110 % of control. The T/C (endpoint: mean survival time, dose: 64.0 mg/kg/injection, schedule: Q01DX001 (oral), vehicle: saline) was 103 % of control, the T/C (endpoint: mean survival time, dose: 64.0 mg/kg/injection, schedule: Q01DX001 (sc), vehicle: saline) was 110 % of control and the T/C (endpoint: mean survival time, dose: 64.0 mg/kg/injection, schedule: Q04DX003 (ip), vehicle: saline) was 104 % of control and 112 % of control. The T/C (endpoint: mean survival time, dose: 64.0 mg/kg/injection, schedule: Q04DX003 (oral), vehicle: saline) was 106 % of control and 120 % of control, the T/C (endpoint: mean survival time, dose: 64.0 mg/kg/injection, schedule: Q## X002 (ip), vehicle: saline) was 118 % of control and the T/C (endpoint: mean survival time, dose: 64.0 mg/kg/injection, schedule: Q## X003 (oral), vehicle: saline) was 117 % of control and 119 % of control. For the same compound, the T/C (endpoint: mean survival time, dose: 72.0 mg/kg/injection, schedule: Q## X032 (ip), vehicle: saline) was 115 % of control and 116 % of control, the T/C (endpoint: mean survival time, dose: 80.0 mg/kg/injection, schedule: Q04DX002 (ip), vehicle: saline) was 104 % of control and the T/C (endpoint: mean survival time, dose: 96.0 mg/kg/injection, schedule: Q03DX006 (ip), vehicle: saline) was 102 % of control. The T/C (endpoint: mean survival time, dose: 108.0 mg/kg/injection, schedule: Q## X032 (ip), vehicle: saline) was 101 % of control, the T/C (endpoint: mean survival time, dose: 112.0 mg/kg/injection, schedule: Q01DX001 (ip), vehicle: saline) was 114 % of control and the T/C (endpoint: mean survival time, dose: 128.0 mg/kg/injection, schedule: Q01DX001 (sc), vehicle: saline) was 105 % of control. The T/C (endpoint: mean survival time, dose: 128.0 mg/kg/injection, schedule: Q04DX003 (oral), vehicle: saline) was 110 % of control, the T/C (endpoint: mean survival time, dose: 128.0 mg/kg/injection, schedule: Q## X024 (ip), vehicle: saline) was 112 % of control and the T/C (endpoint: median survival time, dose: 0.25 mg/kg/injection, schedule: Q03HX024 (ip), vehicle: water) was 105 % of control. For the same compound, the T/C (endpoint: median survival time, dose: 2.0 mg/kg/injection, schedule: Q01DX009 (ip), vehicle: water) was 120 % of control.

With `O=NN(CCCl)C(=O)NC1CS(=O)(=O)CS(=O)(=O)C1` the T/C (endpoint: mean survival time, dose: 6.25 mg/kg/injection, schedule: Q01DX001 (ip), vehicle: other) was 193 % of control, the T/C (endpoint: mean survival time, dose: 12.5 mg/kg/injection, schedule: Q01DX001 (ip), vehicle: other) was 296 % of control and the T/C (endpoint: mean survival time, dose: 25.0 mg/kg/injection, schedule: Q01DX001 (ip), vehicle: other) was 322 % of control. The T/C (endpoint: mean survival time, dose: 50.0 mg/kg/injection, schedule: Q01DX001 (ip), vehicle: other) was 252 % of control and the T/C (endpoint: mean survival time, dose: 75.0 mg/kg/injection, schedule: Q01DX001 (ip), vehicle: other) was 117 % of control.

For `CC1C=CC(c2ccccc2)C2C(=O)OC(=O)C12` (stereo unspecified), the T/C (endpoint: mean survival time, dose: 50.0 mg/kg/injection, schedule: Q01DX009 (ip), vehicle: Klucel (hydroxypropylcellulose) (HPC)) was 111 % of control and the T/C (endpoint: mean survival time, dose: 100.0 mg/kg/injection, schedule: Q01DX009 (ip), vehicle: Klucel (hydroxypropylcellulose) (HPC)) was 101 % of control.

Source: PubChem BioAssay AID248 (DTP/NCI, 2004)
